Key:
[1] = xn = mol fraction of the nth substance listed; conditions: 101.3 kPa, Liquid
[2] = excess molar enthalpy (molar enthalpy of mixing); xn = mol fraction of the nth substance listed; conditions: 318.15 K, 101.3 kPa, Liquid

CCCCCCCCCC [decane] + COC(=O)OC
[1]
Conditions | mass density [kg/m3]
298.15 K, x2 = 0 | 726.2
298.15 K, x2 = 0.0043 | 726.8
298.15 K, x2 = 0.0235 | 729.1
298.15 K, x2 = 0.0888 | 737.6
298.15 K, x2 = 0.1363 | 744.6
298.15 K, x2 = 0.1922 | 753.4
298.15 K, x2 = 0.2402 | 761.6
298.15 K, x2 = 0.3348 | 779.8
298.15 K, x2 = 0.4201 | 798.8
298.15 K, x2 = 0.4876 | 816
298.15 K, x2 = 0.5607 | 837.1
298.15 K, x2 = 0.6214 | 856.8
298.15 K, x2 = 0.6754 | 876.5
298.15 K, x2 = 0.7219 | 895.2
298.15 K, x2 = 0.7702 | 916.6
298.15 K, x2 = 0.8104 | 936.3
298.15 K, x2 = 0.8421 | 953.4
298.15 K, x2 = 0.8849 | 978.5
298.15 K, x2 = 0.9135 | 997
298.15 K, x2 = 0.9424 | 1017.3
298.15 K, x2 = 0.9709 | 1039
303.15 K, x2 = 0 | 722.3
303.15 K, x2 = 0.0489 | 728.4
303.15 K, x2 = 0.0996 | 735.2
303.15 K, x2 = 0.1998 | 750.3
303.15 K, x2 = 0.299 | 768.1
303.15 K, x2 = 0.3991 | 789.2
303.15 K, x2 = 0.4992 | 814.3
303.15 K, x2 = 0.6023 | 845.3
303.15 K, x2 = 0.7013 | 881.5
303.15 K, x2 = 0.8008 | 925.9
303.15 K, x2 = 0.9012 | 982.6
303.15 K, x2 = 0.9505 | 1016.6
313.15 K, x2 = 0 | 714.7
313.15 K, x2 = 0.0489 | 720.6
313.15 K, x2 = 0.0996 | 727.2
313.15 K, x2 = 0.1998 | 742
313.15 K, x2 = 0.299 | 759.4
313.15 K, x2 = 0.3991 | 780.1
313.15 K, x2 = 0.4992 | 804.7
313.15 K, x2 = 0.6023 | 835.2
313.15 K, x2 = 0.7013 | 870.6
313.15 K, x2 = 0.8008 | 914.4
313.15 K, x2 = 0.9012 | 970.3
313.15 K, x2 = 0.9505 | 1003.6
318.15 K, x2 = 0 | 710.9
318.15 K, x2 = 0.0902 | 722.1
318.15 K, x2 = 0.1142 | 725.4
318.15 K, x2 = 0.1922 | 736.9
318.15 K, x2 = 0.3283 | 760.8
318.15 K, x2 = 0.4184 | 780
318.15 K, x2 = 0.4855 | 796.3
318.15 K, x2 = 0.4962 | 799.1
318.15 K, x2 = 0.5666 | 818.8
318.15 K, x2 = 0.6142 | 833.9
318.15 K, x2 = 0.6732 | 854.3
318.15 K, x2 = 0.728 | 875.8
318.15 K, x2 = 0.7735 | 895.6
318.15 K, x2 = 0.8087 | 912.6
318.15 K, x2 = 0.8503 | 934.4
318.15 K, x2 = 0.8944 | 960.1
318.15 K, x2 = 0.9252 | 980
318.15 K, x2 = 0.9473 | 995.6
318.15 K, x2 = 0.9768 | 1017.9

[2]
Conditions | excess molar enthalpy [kJ/mol]
x2 = 0 | 0
x2 = 0.0948 | 0.796
x2 = 0.1964 | 1.43
x2 = 0.29 | 1.9
x2 = 0.3757 | 2.19
x2 = 0.4516 | 2.35
x2 = 0.5089 | 2.4
x2 = 0.5556 | 2.4
x2 = 0.5944 | 2.38
x2 = 0.6291 | 2.34
x2 = 0.6358 | 2.33
x2 = 0.6748 | 2.25
x2 = 0.7141 | 2.17
x2 = 0.7558 | 2.02
x2 = 0.7914 | 1.86
x2 = 0.8294 | 1.65
x2 = 0.8725 | 1.38
x2 = 0.9085 | 1.07
x2 = 0.9429 | 0.726
x2 = 0.9788 | 0.31

COC(=O)OC [dimethyl carbonate] + CCCCCC
[1]
Conditions | mass density [kg/m3]
293.15 K, x1 = 0.0722 | 677.3
293.15 K, x1 = 0.1448 | 696.6
293.15 K, x1 = 0.2286 | 720.8
293.15 K, x1 = 0.3026 | 744
293.15 K, x1 = 0.4102 | 780.8
293.15 K, x1 = 0.5062 | 817
293.15 K, x1 = 0.6026 | 857.1
293.15 K, x1 = 0.7052 | 904
293.15 K, x1 = 0.7974 | 950.5
293.15 K, x1 = 0.901 | 1008.3
293.15 K, x1 = 0.9506 | 1038.5
293.15 K, x1 = 1 | 1070
298.15 K, x1 = 0.082 | 674.9
298.15 K, x1 = 0.1269 | 686.7
298.15 K, x1 = 0.2131 | 710.9
298.15 K, x1 = 0.3197 | 744.1
298.15 K, x1 = 0.3787 | 764
298.15 K, x1 = 0.4712 | 797.6
298.15 K, x1 = 0.5121 | 813.4
298.15 K, x1 = 0.6067 | 852.6
298.15 K, x1 = 0.6987 | 894.5
298.15 K, x1 = 0.842 | 967.9
298.15 K, x1 = 0.9248 | 1015.9
298.15 K, x1 = 0.9615 | 1038.7
298.15 K, x1 = 1 | 1063.5
303.15 K, x1 = 0.0468 | 661.4
303.15 K, x1 = 0.0991 | 674.5
303.15 K, x1 = 0.1951 | 700.4
303.15 K, x1 = 0.295 | 730.4
303.15 K, x1 = 0.3832 | 759.5
303.15 K, x1 = 0.4865 | 797.1
303.15 K, x1 = 0.5899 | 838.7
303.15 K, x1 = 0.696 | 886.3
303.15 K, x1 = 0.7947 | 935.5
303.15 K, x1 = 0.8939 | 990.5
303.15 K, x1 = 0.9436 | 1020.3
303.15 K, x1 = 1 | 1056.5
313.15 K, x1 = 0.0495 | 652.7
313.15 K, x1 = 0.1 | 665.2
313.15 K, x1 = 0.2092 | 694.5
313.15 K, x1 = 0.3093 | 724.6
313.15 K, x1 = 0.4043 | 756.1
313.15 K, x1 = 0.4941 | 788.8
313.15 K, x1 = 0.6052 | 833.6
313.15 K, x1 = 0.7063 | 879.2
313.15 K, x1 = 0.8046 | 928.6
313.15 K, x1 = 0.9014 | 982.5
313.15 K, x1 = 0.9497 | 1011.6
313.15 K, x1 = 1 | 1043.4
318.15 K, x1 = 0.0773 | 654.9
318.15 K, x1 = 0.1163 | 664.6
318.15 K, x1 = 0.1621 | 676.6
318.15 K, x1 = 0.2689 | 706.8
318.15 K, x1 = 0.3288 | 725.3
318.15 K, x1 = 0.4097 | 752.4
318.15 K, x1 = 0.4753 | 776
318.15 K, x1 = 0.5256 | 795.2
318.15 K, x1 = 0.5452 | 803.1
318.15 K, x1 = 0.5879 | 820.6
318.15 K, x1 = 0.6449 | 845.2
318.15 K, x1 = 0.6976 | 869.3
318.15 K, x1 = 0.7615 | 900.4
318.15 K, x1 = 0.8039 | 922.2
318.15 K, x1 = 0.8422 | 942.9
318.15 K, x1 = 0.8808 | 964.3
318.15 K, x1 = 0.9311 | 993.8
318.15 K, x1 = 0.9657 | 1015.1
318.15 K, x1 = 1 | 1036.9

[2]
Conditions | excess molar enthalpy [kJ/mol]
x1 = 0.088 | 0.716
x1 = 0.1762 | 1.22
x1 = 0.2418 | 1.54
x1 = 0.3259 | 1.81
x1 = 0.4027 | 1.97
x1 = 0.4703 | 2.05
x1 = 0.5162 | 2.07
x1 = 0.5554 | 2.06
x1 = 0.6261 | 1.99
x1 = 0.6776 | 1.9
x1 = 0.7263 | 1.76
x1 = 0.7728 | 1.59
x1 = 0.8189 | 1.35
x1 = 0.866 | 1.1
x1 = 0.9005 | 0.852
x1 = 0.9393 | 0.545
x1 = 0.9822 | 0.197
x1 = 1 | 0
